Common to all, as to type: cell-based
Assay [1] concerns Staphylococcus aureus 209p. Nature of the assay: MIC against standard strain, plate method. Particulars: unit assumed. The protocol: (§1) The minimum inhibitory concentrations (MIC) was determined by the plate method disclosed in "Chemotherapy" (Japan), Vol. 16, (1968), pages 98 - 99. The culture medium used was a Heart infusion agar (pH 7.4). The number of the cells per plate used in the inoculum as 10^4 (10^6 cells/ml).

A further assay deals with Proteus vulgaris 3027. Briefly: MIC against standard strain, plate method. Particulars: Proteus vulgaris 3027, standard strain; unit assumed. The protocol: as §1
Assay [2] deals with Klebsiella pneumoniae. Nature of the assay: MIC against standard strain, plate method. Particulars: unit assumed. The protocol: as §1
The test system of a further assay is Escherichia coli NIHJ. Briefly: MIC against standard strain, plate method. As to conditions: unit assumed. The protocol:
as §1

The test system of assay [3] is Pseudomonas aeruginosa I.F.O. Nature of the assay: MIC against standard strain, plate method. Particulars: unit assumed. The protocol: as §1
The next assay concerns Staphylococcus aureus. Briefly: MIC against clinical isolates. Particulars: unit assumed.
The subject of assay [4] is Klebsiella pneumoniae. Briefly: MIC against clinical isolates. As to conditions: unit assumed.
For the next assay, the system named is Escherichia coli. Nature of the assay: MIC against clinical isolates. As to conditions: unit assumed.
Another assay has as its system Pseudomonas aeruginosa. Nature of the assay: MIC against clinical isolates. Particulars: unit assumed.

From patent US4110327A, “2,3 Diketo-piperazinocarbonylamino alkanoic acids and derivatives” (Toyama Chemical Co., Ltd., priority 1974, dated 1978) come the findings set out here.

Values after ≈ are worked out from the molar mass of the structure shown. A value given as a limit tells only on which side of the number the result lay.

As for `CN1CCN(C(=O)NC(C(=O)NC2C(=O)N3C2SC(C)(C)C3C(=O)OCCN2CCOCC2)c2ccccc2)C(=O)C1=O` (single isomer, unassigned) [compound 55], the MIC (as a rule, the lowest concentration found to suppress growth) in assay [1] was found to be 0.79 µg/mL (≈ 1.28 µM); against Proteus vulgaris 3027, 0.79 µg/mL (≈ 1.28 µM); in the assay with Klebsiella pneumoniae [2] it was 25 µg/mL (≈ 40.5 µM); with Escherichia coli NIHJ it was 0.4 µg/mL (≈ 0.649 µM); in assay [3], 6.25 µg/mL (≈ 10.1 µM).
For `O=C(Cc1cccs1)N[C@@H]1C(=O)N2C(C(=O)[O-])=C(C[n+]3ccccc3)CS[C@H]12` [Cephalorizine, reference compound], the MIC against Staphylococcus aureus (clinical isolate F-1) was less than 0.4 µg/mL; in the assay on Staphylococcus aureus (clinical isolate F-2) it was less than 0.4 µg/mL; in the assay with Staphylococcus aureus (clinical isolate F-3), less than 0.4 µg/mL; in the assay with Staphylococcus aureus (clinical isolate F-4), less than 0.4 µg/mL; with Staphylococcus aureus (clinical isolate F-5), 0.78 µg/mL (≈ 1.88 µM); against Staphylococcus aureus (clinical isolate MS 8588) it was less than 0.4 µg/mL. Besides, the minimum inhibitory concentration (MIC) against Staphylococcus aureus (clinical isolate MS 8596) is less than 0.4 µg/mL; against Staphylococcus aureus (clinical isolate MS 8619) it was less than 0.4 µg/mL; in the assay on Staphylococcus aureus (clinical isolate MS 8684) it was less than 0.4 µg/mL; in the assay with Staphylococcus aureus (clinical isolate MS 8713), less than 0.4 µg/mL; against Klebsiella pneumoniae [4] (clinical isolate GN 917), 3.13 µg/mL (≈ 7.53 µM); in the assay with Klebsiella pneumoniae [4] (clinical isolate GN 4081), 12.5 µg/mL (≈ 30.1 µM). For the same compound, the minimum inhibitory concentration (MIC) against Klebsiella pneumoniae [4] (clinical isolate GN 4117) came out at 12.5 µg/mL (≈ 30.1 µM); in the assay with Escherichia coli (clinical isolate GN 3435) it was 3.13 µg/mL (≈ 7.53 µM); against Escherichia coli (clinical isolate GN 3452), 3.13 µg/mL (≈ 7.53 µM); against Escherichia coli (clinical isolate GN 3465) it was 50 µg/mL (≈ 120 µM); against Escherichia coli (clinical isolate GN 3481), 3.13 µg/mL (≈ 7.53 µM); in the assay on Escherichia coli (clinical isolate GN 3611) it was 100 µg/mL (≈ 241 µM). The minimal inhibitory concentration (MIC) is 3.13 µg/mL (≈ 7.53 µM) in the assay on Escherichia coli (clinical isolate K-1); 3.13 µg/mL (≈ 7.53 µM) in the assay on Escherichia coli (clinical isolate K-2); 200 µg/mL (≈ 481 µM) with Escherichia coli (clinical isolate K-3); 6.25 µg/mL (≈ 15 µM) in the assay on Escherichia coli (clinical isolate K-4); greater than 200 µg/mL against Pseudomonas aeruginosa (clinical isolate GN 82); greater than 200 µg/mL in the assay on Pseudomonas aeruginosa (clinical isolate GN 163). Further, the MIC in the assay on Pseudomonas aeruginosa (clinical isolate GN 221), in the assay on Pseudomonas aeruginosa (clinical isolate GN 244), in the assay with Pseudomonas aeruginosa (clinical isolate GN 376), with Pseudomonas aeruginosa (clinical isolate GN 383), in the assay with Pseudomonas aeruginosa (clinical isolate GN 1035) and with Pseudomonas aeruginosa (clinical isolate GN 1091) was greater than 200 µg/mL in each case. Besides, the minimum inhibitory concentration (MIC) in the assay on Pseudomonas aeruginosa (clinical isolate GN 2565), against Pseudomonas aeruginosa (clinical isolate GN 2987), against Pseudomonas aeruginosa (clinical isolate S-1), against Pseudomonas aeruginosa (clinical isolate S-2), against Pseudomonas aeruginosa (clinical isolate S-3) and with Pseudomonas aeruginosa (clinical isolate S-4) was greater than 200 µg/mL in each case.
For the compound `C=CCN1CCN(C(=O)N[C@@H](C(=O)N[C@@H]2C(=O)N3[C@@H]2SC(C)(C)[C@@H]3C(=O)O)c2ccccc2)CC1=O` [compound 25], the MIC in [1] was less than 1.57 µg/mL; in the assay on Proteus vulgaris 3027, 3.13 µg/mL (≈ 6.07 µM); in the assay on Klebsiella pneumoniae [2], 50 µg/mL (≈ 97 µM); against Escherichia coli NIHJ it was less than 1.57 µg/mL; in [3] it was 25 µg/mL (≈ 48.5 µM).
With `CC1(C)S[C@@H]2[C@H](NC(=O)[C@H](NC(=O)N3CC(=O)N(Cc4ccccc4)CC3=O)c3ccccc3)C(=O)N2[C@H]1C(=O)O` [compound 35], the MIC in [1] worked out at 1.57 µg/mL (≈ 2.71 µM); in the assay on Proteus vulgaris 3027, 25 µg/mL (≈ 43.1 µM); against Klebsiella pneumoniae [2], 25 µg/mL (≈ 43.1 µM); against Escherichia coli NIHJ, 6.25 µg/mL (≈ 10.8 µM); in assay [3], 100 µg/mL (≈ 173 µM).
As to `CCCCN1C(=O)CN(C(=O)N[C@@H](C(=O)N[C@@H]2C(=O)N3[C@@H]2SC(C)(C)[C@@H]3C(=O)O)c2ccccc2)CC1C` (stereo partly shown) [compound 22], the MIC in assay [1] was less than 1.57 µg/mL; with Proteus vulgaris 3027, 6.25 µg/mL (≈ 11.5 µM); in the assay on Klebsiella pneumoniae [2], 12.5 µg/mL (≈ 22.9 µM); with Escherichia coli NIHJ, less than 1.57 µg/mL; in assay [3], 50 µg/mL (≈ 91.6 µM).
For the compound `CC(=O)NC(=O)N1CCN(C(=O)N[C@@H](C(=O)N[C@@H]2C(=O)N3[C@@H]2SC(C)(C)[C@@H]3C(=O)O)c2ccccc2)C(=O)C1` [compound 11], the MIC is less than 1.57 µg/mL in [1]; 6.25 µg/mL (≈ 11.1 µM) with Proteus vulgaris 3027; 50 µg/mL (≈ 89.2 µM) against Klebsiella pneumoniae [2]; less than 1.57 µg/mL against Escherichia coli NIHJ; 50 µg/mL (≈ 89.2 µM) in assay [3].
Regarding `CN1CCN(C(=O)NC(C(=O)NC2C(=O)N3C(C(=O)O)=C(CSc4nncn4C)CSC23)c2ccccc2)C(=O)C1=O` (single isomer, unassigned) [compound 65], the MIC in [1] stood at 3.13 µg/mL (≈ 5.09 µM); against Proteus vulgaris 3027, 3.13 µg/mL (≈ 5.09 µM); against Klebsiella pneumoniae [2], 3.13 µg/mL (≈ 5.09 µM); in the assay on Escherichia coli NIHJ, 0.79 µg/mL (≈ 1.29 µM); in assay [3] it was 25 µg/mL (≈ 40.7 µM).
As for `CCCCCCCCCCCCN1CCN(C(=O)N[C@@H](C(=O)N[C@@H]2C(=O)N3[C@@H]2SC(C)(C)[C@@H]3C(=O)O)c2ccccc2)CC1=O` [compound 31], the MIC is less than 1.57 µg/mL in assay [1]; less than 1.57 µg/mL in the assay with Proteus vulgaris 3027; 6.25 µg/mL (≈ 9.71 µM) in the assay on Klebsiella pneumoniae [2]; less than 1.57 µg/mL with Escherichia coli NIHJ; 12.5 µg/mL (≈ 19.4 µM) in [3].
`CCCCN1CC(=O)N(C(=O)N[C@@H](C(=O)N[C@@H]2C(=O)N3[C@@H]2SC(C)(C)[C@@H]3C(=O)O)c2ccccc2)C(C)C1` (stereo partly shown) [compound 15]: the minimal inhibitory concentration (MIC) was less than 1.57 µg/mL in [1]; 6.25 µg/mL (≈ 11.5 µM) with Proteus vulgaris 3027; 6.25 µg/mL (≈ 11.5 µM) against Klebsiella pneumoniae [2]; 3.13 µg/mL (≈ 5.74 µM) with Escherichia coli NIHJ; 50 µg/mL (≈ 91.6 µM) in assay [3].
As to `CCCCCCCCN1CCN(C(=O)NC(C(=O)NC2C(=O)N3C2SC(C)(C)C3C(=O)OCCN2CCOCC2)c2ccccc2)C(=O)C1=O` (stereo not shown) [compound 56], the MIC was less than 0.4 µg/mL in assay [1]; 0.79 µg/mL (≈ 1.11 µM) with Proteus vulgaris 3027; 1.57 µg/mL (≈ 2.2 µM) against Klebsiella pneumoniae [2]; less than 0.4 µg/mL in the assay with Escherichia coli NIHJ; 12.5 µg/mL (≈ 17.5 µM) in assay [3].
`CN1CCN(C(=O)NC(C(=O)N[C@@H]2C(=O)N3[C@@H]2SC(C)(C)[C@@H]3C(=O)O)c2cccs2)C(=O)C1=O` (stereo partly shown) [compound 58]: the MIC in [1] was less than 1.57 µg/mL; against Proteus vulgaris 3027, 3.13 µg/mL (≈ 6.14 µM); in the assay on Klebsiella pneumoniae [2] it was 25 µg/mL (≈ 49.1 µM); in the assay on Escherichia coli NIHJ, less than 1.57 µg/mL; in [3], 12.5 µg/mL (≈ 24.5 µM).
Turning to `CC1(C)S[C@@H]2[C@H](NC(=O)[C@H](NC(=O)N3CCN(C(=O)c4ccc(Cl)cc4)CC3=O)c3ccccc3)C(=O)N2[C@H]1C(=O)O` [compound 8], the MIC in assay [1] was less than 1.57 µg/mL; against Klebsiella pneumoniae [2], 6.25 µg/mL (≈ 10.2 µM); in the assay with Escherichia coli NIHJ, less than 1.57 µg/mL.
`CN1CCN(C(=O)NC(C(=O)NC2C(=O)N3C(C(=O)O)=C(CSc4nncs4)CSC23)c2ccccc2)C(=O)C1=O` (single isomer, unassigned) [compound 64]: the minimal inhibitory concentration (MIC) in assay [1] is 0.79 µg/mL (≈ 1.28 µM); in the assay with Proteus vulgaris 3027 it was 3.13 µg/mL (≈ 5.07 µM); in the assay with Klebsiella pneumoniae [2] it was 1.57 µg/mL (≈ 2.54 µM); with Escherichia coli NIHJ it was less than 0.1 µg/mL; in assay [3] it was 25 µg/mL (≈ 40.5 µM).
Turning to `C=CCN1CCN(C(=O)N[C@@H](C(=O)N[C@@H]2C(=O)N3[C@@H]2SC(C)(C)[C@@H]3C(=O)O)c2ccccc2)C(=O)C1=O` (single isomer, unassigned) [compound 42], the MIC in assay [1] is 1.57 µg/mL (≈ 2.96 µM); against Proteus vulgaris 3027 it was less than 1.57 µg/mL; with Klebsiella pneumoniae [2], 6.25 µg/mL (≈ 11.8 µM); against Escherichia coli NIHJ, less than 1.57 µg/mL; in assay [3] it was 12.5 µg/mL (≈ 23.6 µM).
Regarding `CC1(C)S[C@@H]2[C@H](NC(=O)[C@H](NC(=O)N3CC(=O)N(C(=O)c4ccccc4)CC3=O)c3ccccc3)C(=O)N2[C@H]1C(=O)O` [compound 34], the MIC in [1] worked out at 1.57 µg/mL (≈ 2.64 µM); in the assay with Proteus vulgaris 3027 it was 50 µg/mL (≈ 84.2 µM); in the assay with Klebsiella pneumoniae [2], 50 µg/mL (≈ 84.2 µM); with Escherichia coli NIHJ, 3.13 µg/mL (≈ 5.27 µM); in [3], 100 µg/mL (≈ 168 µM).
For `CC1(C)S[C@@H]2[C@H](NC(=O)[C@H](NC(=O)N3CCN(C(=O)Nc4ccccc4)C(=O)C3)c3ccccc3)C(=O)N2[C@H]1C(=O)O` [compound 33], the MIC was less than 1.57 µg/mL in assay [1]; 3.13 µg/mL (≈ 5.26 µM) in the assay on Proteus vulgaris 3027; 6.25 µg/mL (≈ 10.5 µM) in the assay with Klebsiella pneumoniae [2]; less than 1.57 µg/mL against Escherichia coli NIHJ; 50 µg/mL (≈ 84.1 µM) in [3].
For `COCOC(=O)[C@@H]1N2C(=O)[C@@H](NC(=O)[C@H](NC(=O)N3CCN(C)C(=O)C3=O)c3ccccc3)[C@H]2SC1(C)C` (single isomer, unassigned) [compound 50], the MIC is less than 0.79 µg/mL in assay [1]; less than 0.79 µg/mL in the assay on Proteus vulgaris 3027; 6.25 µg/mL (≈ 11.4 µM) with Klebsiella pneumoniae [2]; less than 0.79 µg/mL in the assay with Escherichia coli NIHJ; 6.25 µg/mL (≈ 11.4 µM) in assay [3].
Regarding `O=C(Cc1cccs1)N[C@@H]1C(=O)N2C(C(=O)[O-])=C(C[n+]3ccccc3)CS[C@H]12` [Cephaloridine, reference compound], the MIC in [1] was less than 1.57 µg/mL; in the assay on Klebsiella pneumoniae [2] it was 200 µg/mL (≈ 481 µM); against Escherichia coli NIHJ, greater than 3.13 µg/mL; in assay [3], 200 µg/mL (≈ 481 µM).
